Among the data in ChEMBL document CHEMBL1146419, “Antimicrobial and cytotoxic phenolic glycoside esters from the New Zealand tree Toronia toru” (J Nat Prod, 1997) are zone of inhibition, Activity and IC50 values, retold here.

In brackets after ≈: the same amount, converted by molar mass.

Data set [1] relates to Trichophyton mentagrophytes. The experiment in a line: Antimicrobial activity against Trichophyton mentagrophytes at 60 ug/disk. The settings on record: read-out: IZ. Type of data set: functional.
The test system of data set [2] is Trichophyton mentagrophytes. The experiment in a line: Antimicrobial activity against Trichophyton mentagrophytes at 30 ug/disk. It counts as functional. The settings on record: read-out: IZ.
Data set [3] in a line: Cytotoxicity against african green monkey BSC1 cells at 120 ug/disk. It counts as cell-based. The following applies: chlorocebus aethiops, bsc-1.
A short description of data set [4]: Cytotoxicity against african green monkey BSC1 cells at 60 ug/disk. It counts as cell-based. The following applies: chlorocebus aethiops, bsc-1.
A short description of data set [5]: Cytotoxicity against african green monkey BSC1 cells at 30 ug/disk. Type of data set: cell-based. The following applies: chlorocebus aethiops, bsc-1.
A short description of data set [6]: Cytotoxicity against african green monkey BSC1 cells at 15 ug/disk. Type of data set: cell-based. The following applies: chlorocebus aethiops, bsc-1.
In a further data set the test system is P388. The experiment in a line: Cytotoxicity against mouse P388 cells. It counts as functional, cell-based.
In data set [7] the test system is Bacillus subtilis. The experiment in a line: Antimicrobial activity against Bacillus subtilis at 120 ug/disk. Type of data set: functional. The following applies: read-out: IZ.
Data set [8] deals with Bacillus subtilis. Nature of the data set: Antimicrobial activity against Bacillus subtilis at 60 ug/disk. The settings on record: read-out: IZ. It counts as functional.
The test system of data set [9] is Bacillus subtilis. The experiment in a line: Antimicrobial activity against Bacillus subtilis at 30 ug/disk. The following applies: read-out: IZ. It counts as functional.
The subject of data set [10] is Escherichia coli. Nature of the data set: Antimicrobial activity against Escherichia coli at 120 ug/disk. Type of data set: functional. The following applies: read-out: IZ.
Data set [11] deals with Escherichia coli. Nature of the data set: Antimicrobial activity against Escherichia coli at 60 ug/disk. It counts as functional. The settings on record: read-out: IZ.
Data set [12] deals with Escherichia coli. The experiment in a line: Antimicrobial activity against Escherichia coli at 30 ug/disk. Type of data set: functional. The following applies: read-out: IZ.
Data set [13] relates to Pseudomonas aeruginosa. The experiment in a line: Antimicrobial activity against Pseudomonas aeruginosa at 120 ug/disk. The settings on record: read-out: IZ. Type of data set: functional.
The subject of data set [14] is Pseudomonas aeruginosa. Nature of the data set: Antimicrobial activity against Pseudomonas aeruginosa at 60 ug/disk. Type of data set: functional. The settings on record: read-out: IZ.
In data set [15] the test system is Pseudomonas aeruginosa. Nature of the data set: Antimicrobial activity against Pseudomonas aeruginosa at 30 ug/disk. Type of data set: functional. The settings on record: read-out: IZ.
Data set [16] deals with Trichophyton mentagrophytes. The experiment in a line: Antimicrobial activity against Trichophyton mentagrophytes at 120 ug/disk. It counts as functional. The following applies: read-out: IZ.
In data set [17] the test system is Trichophyton mentagrophytes. Nature of the data set: Antimicrobial activity against Trichophyton mentagrophytes at 15 ug/disk. Type of data set: functional. The settings on record: read-out: IZ.
The test system of data set [18] is Bacillus subtilis. The experiment in a line: Antimicrobial activity against Bacillus subtilis at 15 ug/disk. It counts as functional. The following applies: read-out: IZ.
The subject of data set [19] is Escherichia coli. Nature of the data set: Antimicrobial activity against Escherichia coli at 15 ug/disk. The following applies: read-out: IZ. Type of data set: functional.
Data set [20] relates to Pseudomonas aeruginosa. The experiment in a line: Antimicrobial activity against Pseudomonas aeruginosa at 15 ug/disk. Type of data set: functional. The settings on record: read-out: IZ.

For `C=C(CCO)C(=O)OC[C@H]1O[C@@H](Oc2ccc(O)cc2)[C@H](O)[C@@H](O)[C@@H]1O`, the zone of inhibition at 60 µg/disc (in [1]; in the data set with Bacillus subtilis [8]; with Escherichia coli [11]; with Pseudomonas aeruginosa [14]) was 0 mm in each case. Besides, the zone of inhibition at 30 µg/disc (in [2]; in the data set on Bacillus subtilis [9]; in the data set on Escherichia coli [12]; in the data set on Pseudomonas aeruginosa [15]) was 0 mm each time. The Activity in data set [3] worked out at 100%; in [4] it was 100%; in data set [5] it was 100%; in [6], 50%. In addition, the 50% inhibitory concentration (IC50) (in general, the concentration that inhibits the measured activity by half) in the data set with P388 was > 25 µg/mL. The zone of inhibition at 120 µg/disc (with Bacillus subtilis [7]; in the data set on Escherichia coli [10]; with Pseudomonas aeruginosa [13]; in data set [16]) was 0 mm throughout.
`C=C(C(=O)OC[C@H]1O[C@@H](Oc2ccc(O)cc2)[C@H](O)[C@@H](O)[C@@H]1O)[C@@H](O)CO`: the zone of inhibition at 60 µg/disc amounted to 0 mm in data set [1], 1 mm with Bacillus subtilis [8], 2 mm in the data set on Escherichia coli [11] and 1 mm in the data set with Pseudomonas aeruginosa [14]. The zone of inhibition at 30 µg/disc (in data set [2]; with Bacillus subtilis [9]; in the data set on Escherichia coli [12]; in the data set on Pseudomonas aeruginosa [15]) was 0 mm throughout. In addition, the Activity stood at 100% in [3], 100% in data set [4] and 50% in data set [5]. Further, the IC50 in the data set with P388 came out at 3 µg/mL (≈ 7.76 µM). The zone of inhibition at 120 µg/disc was 5 mm in the data set with Bacillus subtilis [7], 4 mm with Escherichia coli [10], 3 mm in the data set with Pseudomonas aeruginosa [13] and 5 mm in data set [16].
On to `OC[C@H]1O[C@@H](Oc2ccc(O)cc2)[C@H](O)[C@@H](O)[C@@H]1O` [ARBUTIN], for which the Activity in [3] was determined as 50%. The IC50 with P388 was > 25 µg/mL. For the same molecule, the zone of inhibition at 120 µg/disc (in the data set on Bacillus subtilis [7]; in the data set with Escherichia coli [10]; in the data set on Pseudomonas aeruginosa [13]; in data set [16]) was 0 mm each time.
As for `Oc1ccc(O)cc1` [HYDROQUINONE], the zone of inhibition at 60 µg/disc in data set [1] worked out at 0 mm; with Bacillus subtilis [8], 4 mm; in the data set on Escherichia coli [11], 0 mm; in the data set on Pseudomonas aeruginosa [14], 3 mm. In addition, the zone of inhibition at 30 µg/disc in data set [2] worked out at 0 mm; with Bacillus subtilis [9] it was 3 mm; in the data set on Escherichia coli [12], 0 mm; in the data set on Pseudomonas aeruginosa [15] it was 2 mm. Moreover, the Activity in [3] is recorded as 100%; in data set [4], 100%; in data set [5], 75%. Further, in the data set with P388, the IC50 was 3 µg/mL (≈ 27.2 µM). Further, the zone of inhibition at 120 µg/disc came out at 9 mm in the data set with Bacillus subtilis [7], 5 mm in the data set on Escherichia coli [10], 3 mm with Pseudomonas aeruginosa [13] and 10 mm in data set [16].
`C=C1CCOC1=O` [TULIPALINE A]: the zone of inhibition at 60 µg/disc (in [1]; with Bacillus subtilis [8]; in the data set on Escherichia coli [11]; with Pseudomonas aeruginosa [14]) was 0 mm in each case. Besides, the zone of inhibition at 30 µg/disc (in data set [2]; in the data set with Bacillus subtilis [9]; in the data set on Escherichia coli [12]; in the data set on Pseudomonas aeruginosa [15]) was 0 mm throughout. Besides, the zone of inhibition at 15 µg/disc (in [17]; with Bacillus subtilis [18]; in the data set on Escherichia coli [19]; with Pseudomonas aeruginosa [20]) was 0 mm each time. Besides, the Activity in data set [3], in [4], in data set [5] and in data set [6] was 100% throughout. The half-inhibitory concentration (IC50) in the data set on P388 is 0.8 µg/mL (≈ 8.15 µM). Besides, the zone of inhibition at 120 µg/disc was 10 mm with Bacillus subtilis [7], 5 mm in the data set on Escherichia coli [10], 4 mm in the data set on Pseudomonas aeruginosa [13] and 8 mm in data set [16].
